Values of other authors, collected in patent US6627208B2, “Biocidal material with improved activity” (Eastman Kodak Company, priority 1999, dated 2003).
In brackets after ≈: the same amount, converted by molar mass.

Details: limit of solubility

CCCCCCCCn1sc(Cl)c(Cl)c1=O [Kathon 287T®]
solubility in water: 5 µg/mL (≈ 17.7 µM)
